# Experimental data from US6979747B2, “Antioxidants, preparation processes and their uses” (Centre National de la Recherche Scientifique (CNRS), priority 1999, dated 2005).
# How the values were obtained:
# MDMs = experiment: Cytotoxicity with respect to MDMs (neutral red); format: cell-based, human; conditions: MDMs
# Protocol: These tests are carried out systematically in parallel with the evaluation of the antiviral activity. In view of the oxidation/reduction capacity of the molecules tested, the test with the tetrazolium salt, which measures the activity of mitochondrial dehydrogenases, cannot be used.
# Neutral red (NR) is a vital dye which makes it possible to measure the viability of adherent cells, such as MDMs. 600 μl of culture supernatant are removed and replaced with 400 μl of an NR solution (0.001% m/v in phosphate buffer, PBS, Boehringer Mannheim), filtered at 0.45 μm. The cells were incubated for 1 h at 37° C. and are subsequently washed (2×1 ml of PBS). The cells are then lysed at −20° C. with 200 μl of a 50% ethanol mixture comprising 1% of glacial acetic acid. The OD is measured twice with 100 μl of solution using a spectrophotometer.
# HIV-1 LAI = experiment: Antiviral activity in quiescent or PHA-P activated PBLs infected with HIV-1 LAI; format: cell-based; conditions: quiescent PBLs or PBLs activated by PHA-P
# Protocol: For some experiments, the PBMCs and the PBLs are activated for 48 h with 1 μg/ml of a mitogen, PHA-P (Difco Laboratories). The PBMCs and the PBLs are cultured in medium A (quiescent) or B (activated). The cells are cultured at 37° C. in an atmosphere saturated with moisture under 5% of CO2. The culture supernatants are removed and the culture media are replaced every three or four days. At each renewal of the culture media, the cell viability is evaluated by coloring with trypan blue or by microscopic observation.
# The MDMs were infected with the reference isolate with macrophage tropism, HIV-1/Ba-L. The PBMCs and the PBLs were infected with the reference isolate with lymphocyte tropism HIV-1 LAI. The viral stock were formed by amplifying these strains in vitro using umbilical blood mononucleated cells (UBM(s) preactivated with 1 μg/ml of PHA-P and cultured in medium A supplemented by 20 IU/ml of IL-2. In order to remove the soluble factors, such as cytokines, the culture supernatants were ultracentrifuged at 360 000 g for 5 min, and the pellets were resuspended in RPMI 1640. The viral stocks thus formed were subsequently titred using PBMCs activated with PHA-P. The TCID50s (50% Tissue Culture Infectious Dose) were calculated using the Kärber formula.
# A million MDMs were infected with 10 000 TCID50s of the HIV-1/Ba-L strain. This amount of virus corresponds to a multiplicity of infection (m.o.i.) equal to 0.01. The excess of virus is removed 24 h after by washing with cells using RPMI 1640. […]
# The viral replication is measured by assaying the RT activity in the culture supernatants according to the technique described by F. Rey et al. (Biochem. Biophys. Res. Comm., 1984, 121, 126-133). The radioactivity incorporated during the extension of the complementary strand of a poly-rA synthetic matrix in the presence of an oligo-dT12-18 primer and of a radiolabeled substrate, [^3H-methyl]thymidine-5′-triphosphate ([^3H]TPP), makes it possible to assay the enzymatic activity of RT. […] The β radioactivity is quantified by means of a scintillation counter (Packard Bell). […]
# HIV-1/Ba-L [1] = experiment: Combination of I-152 with AZT in MDMs infected with HIV-1/Ba-L (Chou combination index); format: cell-based; conditions: I-152 combined with AZT
# Protocol: Viral replication was measured by assaying the reverse transcriptase activity in culture supernatants using the RetroSys kit from Innovagen, following the recommendations of the company.
# The compound I-152 and its derivatives are prepared extemporaneously by being dissolved in dimethyl sulfoxide (DMSO) at the concentration of 100 mM. They are subsequently stored at −20° C. after having been diluted 10 fold in phosphate buffer (PBS).
# The pro-GSH compounds of the “I-152 family” are preferably administered as adjuvants therapeutic for current antiretrovirals. The inventors have thus attempted to measure in vitro the effects of I-152 with respect to the anti-HIV effectiveness of these molecules. This study was carried out using macrophages derived from human blood monocytes infected by the HIV-1/Ba-L strain and according to the methodology described by J. and T C. Chou for quantifying the synergistic effects, additive or antagonistic, between two molecules.
# HIV-1/Ba-L [2] = experiment: Antiviral activity in MDM cultures infected with HIV-1/Ba-L (RT activity in culture supernatants); format: cell-based; conditions: Human immunodeficiency virus 1, BAL; MDMs infected with 1 000 TCID50 (m.o.i. 0.001); read-out: 50% effective dose (ED)
structure (smiles),measurement,setting,value
"CC(=O)N[C@@H](CS)C(=O)NCCSC(C)=O [I-152, N-(N-acetyl-L-cysteinyl)-S-acetylcysteamine]",cytotoxicity (in words),MDMs; 500 μM (10 times the 50% effective dose),not cytotoxic
same,cytotoxicity at antiviral doses (in words),MDMs; antiviral doses,not cytotoxic
same,antiviral activity (in words),HIV-1 LAI,inhibits viral replication
same,combination index (CI),HIV-1/Ba-L [1],less than 1
same,EC50,HIV-1/Ba-L [2],3000 nM
